What was measured:
Type in all cases: cell-based
Pseudomonas fluorescens = experiment: Growth in liquid medium (96-well microplate, absorbance 600 nm), tested solution as only carbon source
Procedure: (§1) The effect of the addition of algae extracts to a […] culture medium on the growth kinetics of seven bacterial species with a recognized PGPR (Plant-Growth Promoting Rhizobacteria) effect was determined: Bacillus megaterium, Bacillus subtilis, Rhizobium leguminosarum, Azotobacter vinelandii, Pseudomonas fluorescens, Pseudomonas fulva, Arthrobacter agilis.
(§2) Nutrient broth NB culture medium (Sigma-Aldrich) at 25 g/L was used for the multiplication of the following bacteria: Bacillus subtilis, Bacillus megaterium, Arthrobacter agilis, Pseudomonas fluorescens, Pseudomonas fulva. YMA medium (Sigma-Aldrich) without agar was used for Rhizobium leguminosarum bacteria.
(§3) Tests in sterile 96-well round-bottom microplates were performed. An absorbance of 0.06 to 0.08 (600 nm) for inoculation of the bacteria into the microplate was used in these tests.
(§4) Microplate plating included a blank, a positive control, a negative control and the samples.
(§5) The positive control was composed of bacteria and optimum culture medium (nutrient broth NB), in order to verify good multiplication of the bacteria in the microplates.
(§6) The negative control consisted of sterilized distilled water devoid of carbonaceous elements with 20 μl of bacteria inoculated with their NB culture medium, in order to determine how bacterial growth behaved in a medium depleted of any carbonaceous elements.
(§7) The blank was distilled water without bacteria in order to determine possible variations in absorbance and potential bacterial contamination.
(§8) The different algal extract tests consisted of sterile distilled water with the tested solutions at different concentrations (66 μl) to which 20 μl of bacteria were added.
(§9) The different seaweed extracts tested are: commercial mannitol, commercial laminarans, composition according to the invention (laminarans extract).

Pseudomonas fulva = experiment: as above
Procedure: as §1, §2, §3, §4, §5, §6, §7, §8, §9

Bacillus megaterium = experiment: as above
Procedure: as §1, §2, §3, §4, §5, §6, §7, §8, §9

[1] = tested on: bacterial species with a recognized PGPR (Plant-Growth Promoting Rhizobacteria) effect; experiment: Growth in liquid medium (96-well microplate), bacteria not specified
Procedure: as §1, §2, §3, §4, §5, §6, §7, §8, §9
FIGS. 1 to 3 show a growth of bacterial strains in liquid medium using only the generated extract as carbon source for different bacteria.

Molecule | interaction between bacteria and compound (growth curve versus negative and positive control) (Pseudomonas fluorescens; concentration 0.3%) | interaction between bacteria and compound (growth curve versus negative and positive control) (Pseudomonas fluorescens; concentration 0.5%) | interaction between bacteria and compound (growth curve versus negative and positive control) (Pseudomonas fluorescens; concentration 1%) | interaction between bacteria and compound (growth curve versus negative and positive control) (Pseudomonas fulva; concentration 0.3%) | interaction between bacteria and compound (growth curve versus negative and positive control) (Pseudomonas fulva; concentration 0.5%) | interaction between bacteria and compound (growth curve versus negative and positive control) (Pseudomonas fulva; concentration 1%) | interaction between bacteria and compound (growth curve versus negative and positive control) (Bacillus megaterium; concentration 0.3%) | interaction between bacteria and compound (growth curve versus negative and positive control) (Bacillus megaterium; concentration 0.5%) | interaction between bacteria and compound (growth curve versus negative and positive control) (Bacillus megaterium; concentration 1%) | concentration of maximum effect on bacterial growth ([1]; sole source of carbon) | effect on bacterial growth ([1]; sole source of carbon, higher concentrations (2%)) | effect on bacterial growth ([1]; sole source of carbon, lower concentrations (0.1%)) | effect on bacterial growth ([1]; concentration not given) | effect on bacterial growth ([1]; concentrations in the range of <0.01%) | effect on bacterial growth ([1]; especially when the concentration was above 0.1%) | concentration from which it can be used as a carbon source (increase in bacterial growth) ([1]; used alone) | dependence of the effect on bacterial growth on concentration ([1]; used alone as carbon source)
OC[C@@H](O)[C@@H](O)[C@H](O)[C@H](O)CO [purified mannitol, mannitol] | absence of interaction between bacteria and compounds | absence of interaction between bacteria and compounds | positive interaction between bacteria and compounds | absence of interaction between bacteria and compounds | absence of interaction between bacteria and compounds | positive interaction between bacteria and compounds | absence of interaction between bacteria and compounds | absence of interaction between bacteria and compounds | positive interaction between bacteria and compounds | 1% | very little or no effect | very little or no effect | – | – | – | – | –
Alginates | – | – | – | – | – | – | – | – | – | – | – | – | little effect | – | – | – | –
Fucoidans | – | – | – | – | – | – | – | – | – | – | – | – | – | a small improvement in growth | did not seem to show any real positive effect | – | –
laminaran [standard laminaran] | absence of interaction between bacteria and compounds | absence of interaction between bacteria and compounds | positive interaction between bacteria and compounds | absence of interaction between bacteria and compounds | absence of interaction between bacteria and compounds | positive interaction between bacteria and compounds | absence of interaction between bacteria and compounds | absence of interaction between bacteria and compounds | positive interaction between bacteria and compounds | – | – | – | – | – | – | about 1% | the higher the concentration, the greater the effect
